Data reported in patent publication US5905073A, “Use of 2-hydroxy-5-phenylazobenzoic acid derivatives as colon cancer chemopreventative and chemotherapeutic agents” (priority 1996, dated 1999).
“Also recorded” adds a separate entry of the source. Read-outs that look alike come from different tables or passages of the source. Blank lines part the entries; values can stand above or below the compound they belong to.

What was measured:
[1] = cited from earlier work; for absorption: oral balsalazide
[2] = test system: human colon cancer cells; test: Colon cancer cell proliferation in vitro, comparative statements; assay type: cell-based
Method: (§1) Cells were grown in Dulbeccos Modified Eagle medium supplemented with 10% calf serum in an atmosphere of 5% CO2 at 37° C. For growth experiments, cells were seeded into 24-well tissue culture dishes (2 cm^2 /well) at a density of 20,000 cells/well and allowed to attach for 12 hours. The growth medium was then changed and replaced with fresh media containing the test drugs.
(§2) The test drugs were dissolved in tissue culture media at the desired concentration and added to individual wells. To determine the number of cells per well, media was removed and the cells washed with phosphate buffered saline solution. The cells were then incubated 15 minutes with trypsin-EDTA solution until detached. The detached cells were then removed from the wells and counted using a Coulter Counter (Model ZBI).
(§3) The cell numbers shown in Table I are the average of triplicate culture wells.
(§4) For dose response studies a sensitive dye binding assay was adapted which allows simultaneous assay of multiple agents and doses in 96-well plates. Cells were plated and allowed to adhere for 24 hours prior to addition of the study drug. Cell densities were then determined 4 days later by fixation of the wells and staining with Sulforhodamine B dye. Optical density of the stained cultures was then determined using a 96-well plate reader at 495 nm (Skehan et al. (1990) J. Natl. Cancer Inst. 82:1107-1112).
Two such oxidation products, gentisic acid (Dull et al. (1987) Biochem. Pharmacol. 36:2467-2472) and 5-nitro-salicylate (Laffafian et al. (1991) Biochem. Pharmacol. 42:1869-1874) have been elucidated.

[3] = test system: HT-29 cells; test: Proliferation of HT-29 colon cancer cells, Coulter Counter cell count; assay type: cell-based, human; conditions: for Cell No. on Day 10: average of triplicate wells; for activity at 10000 µM: read-out: % of Control Cells
Method: as §1, §2, §3

[4] = test system: LS174T cells; test: Proliferation of LS174T colon cancer cells, Coulter Counter cell count; assay type: cell-based, human; conditions: for Cell No. on Day 10: average of triplicate wells; for activity at 10000 µM: 240 h
Method: as §1, §2, §3

[5] = test system: LS174T cells; test: LS174T growth with freshly dissolved or pre-dissolved 5-ASA; assay type: cell-based; conditions: Homo sapiens, 96 h
Method: Cells were grown an additional 4 days prior to quantitation.

[6] = test system: LoVo cells; test: Growth inhibition of LoVo colon cancer cells; assay type: cell-based; conditions: Homo sapiens, Table IV, read-out: IC50 for inhibition of human colon cancer cell proliferation
Method: as §4, with “dye.” for “dye. Optical density of the stained cultures was then determined using a 96-well plate reader at 495 nm (Skehan et al. (1990) J. Natl. Cancer Inst. 82:1107-1112).”

[7] = test system: rectal mucosal reactive oxygen metabolite production; conditions: rectal biopsies, ulcerative colitis patients; cited from earlier work
[8] = test system: LS174T cells; test: Dose response growth inhibition of LS174T cells, Sulforhodamine B dye binding assay; assay type: cell-based, human; conditions: for IC50: Homo sapiens
Method: as §4, with “dye.” for “dye. Optical density of the stained cultures was then determined using a 96-well plate reader at 495 nm (Skehan et al. (1990) J. Natl. Cancer Inst. 82:1107-1112).”

[9] = test system: HRT-18 cells; test: Growth inhibition of HRT-18 colon cancer cells; assay type: cell-based; conditions: Homo sapiens; HRT-18, Table IV; read-out: IC50 for inhibition of human colon cancer cell proliferation
Method: as §4, with “dye.” for “dye. Optical density of the stained cultures was then determined using a 96-well plate reader at 495 nm (Skehan et al. (1990) J. Natl. Cancer Inst. 82:1107-1112).”

[10] = test system: nitrosamine formation; conditions: from arginine-dependent nitric oxide; cited from earlier work
[11] = test system: HT-29 cells; test: Dose response growth inhibition of HT-29 cells, Sulforhodamine B dye binding assay; assay type: cell-based, human; conditions: for IC50: Homo sapiens
Method: as §4, with “dye.” for “dye. Optical density of the stained cultures was then determined using a 96-well plate reader at 495 nm (Skehan et al. (1990) J. Natl. Cancer Inst. 82:1107-1112).”

[12] = test system: colon cancer cells; test: 5-ASA growth inhibitory activity following hypochlorite exposure; assay type: cell-based; conditions: for inhibition at 10000 µM: 5-ASA 10 mM, read-out: Increase in Growth Inhibition
Text: Indeed certain of its therapeutic benefits in the treatment of intestinal inflammation are thought to be derived from its ability to scavenge free radicals including O2^- released from inflammatory cells and thereby reduced oxidative damage.

[13] = test system: colon cancer incidence; conditions: cited from earlier work
[14] = in vivo; cited from earlier work
[15] = test system: polyps; conditions: cited from earlier work; for effect on polyps: sulindac: nine familial polyposis patients, randomized placebo-controlled double-blind crossover
[16] = test system: colon carcinogenesis; conditions: cited from earlier work
[17] = Homo sapiens, 240 h, HT-29, 10 mM, Day 10
[18] = Homo sapiens, 10 mM, Day 10, read-out: % of Control Cells
[19] = Table IV, read-out: IC50 for inhibition of human colon cancer cell proliferation
[20] = HT-29, Table IV, read-out: IC50 for inhibition of human colon cancer cell proliferation

SMILES: Nc1ccc(C(=O)NCCC(=O)O)cc1 [4-ABA, 4-aminobenzoyl-β-alanine]
absorption [1]: poorly absorbed
inhibition of colon cancer cell growth (in words) [2]: inactive
Cell No. on Day 10 ([3]; HT-29, 10 mM): 1316625
activity at 10000 µM [3, 17]: 100%
Cell No. on Day 10 ([4]; 10 mM): 768700
activity at 10000 µM [4, 18]: 108%

IC50 [6]: 10.2 mM
IC50 [9]: 10.5 mM
IC50 [11, 20]: 11.9 mM
IC50 ([11]; HT-29, text (FIG. 5), read-out: IC50): 11.8 mM
SMILES: Nc1ccc(O)c(C(=O)O)c1 [5-ASA, 5-aminosalicylic acid]
activity at 10000 µM ([5]; 10 mM dissolved in culture media 4 days prior, read-out: growth response relative to control cultures): 22.9%
activity at 10000 µM ([5]; freshly dissolved 10 mM, 4 days, read-out: growth response relative to control cells): 82.7%
reduction of rectal mucosal reactive oxygen metabolite production [7]: over 90%
conversion to N-acetyl-5-ASA and excretion in urine ([1]; single dose of balsalazide, 96-hour period): majority
increase in cell number ([8]; 0.1-1.0 mM): approximately 20%
IC50 [8, 19]: 11.6 mM
IC50 ([8]; text (FIG. 5), read-out: IC50): 11.5 mM
inhibition of nitrosamine formation [10]: inhibits nitrosamine formation
increase in cell number ([11]; HT-29, 0.1-4 mM): approximately 20%
Cell No. on Day 10 ([3]; HT-29, 10 mM): 512825
activity at 10000 µM [3, 17]: 39%
inhibition at 10000 µM ([3]; Homo sapiens, HT-29, 10 mM, read-out: growth inhibition): 82%
Cell No. on Day 10 ([4]; 10 mM): 8675
inhibition at 10000 µM ([4]; Homo sapiens, 10 mM, read-out: growth inhibition): 85%
activity at 10000 µM [4, 18]: 1.22%
inhibition at 10000 µM ([12]; Na hypochlorite 0 mM): 0%
inhibition at 10000 µM ([12]; Na hypochlorite 0.01 mM): 2%
inhibition at 10000 µM ([12]; Na hypochlorite 0.05 mM): 4%
inhibition at 10000 µM ([12]; Na hypochlorite 0.1 mM): 8%
inhibition at 10000 µM ([12]; Na hypochlorite 0.2 mM): 26%
inhibition at 10000 µM ([12]; Na hypochlorite 0.3 mM): 42%
inhibition at 10000 µM ([12]; Na hypochlorite 0.4 mM): 48%
Basal inhibitory activity ([12]; unoxidized 5ASA): 45%

IC50 [6]: 1.38 mM
IC50 [9]: 1.46 mM
IC50 [11, 20]: 1.63 mM
SMILES: O=C(O)c1cc([N+](=O)[O-])ccc1O [5-NSA, 5-nitro-salicylate]
IC50 [8, 19]: 2.69 mM

SMILES: CC(=O)Oc1ccccc1C(=O)O [Ac-salicylic acid, acetyl salicylic acid]
risk of colon cancer development ([13]; retrospective study (Kune et al.)): halving
increased risk of colon cancer ([13]; retrospective study (Paganini-Hill et al.)): 50%
inhibition of colon cancer cell growth (in words) [2]: potently inhibitory
Cell No. on Day 10 ([3]; HT-29, 10 mM): 14625
activity at 10000 µM ([3]; Homo sapiens, HT-29, 240 h): 1.11%
Cell No. on Day 10 ([4]; 10 mM): 8300
activity at 10000 µM ([4]; Homo sapiens, read-out: % of Control Cells): 2.24%

IC50 [6]: 4.42 mM
IC50 [9]: 2.98 mM
IC50 [11, 20]: 5.05 mM
SMILES: O=C(O)c1cc(O)ccc1O [Gentisate, gentisic acid]
IC50 [8, 19]: 5.85 mM
inhibition of colon cancer cell growth (in words) [2]: inhibited cell growth

SMILES: CC(=O)Nc1ccc(C(=O)NCCC(=O)O)cc1 [N-acetyl metabolite of 4-ABA]
absorption [1]: poorly absorbed

SMILES: CC(=O)Nc1ccc(O)c(C(=O)O)c1 [N-acetyl-5-ASA]
activity of N-acetyl metabolite of 5-ASA ([1]; in vivo): inactive

SMILES: [Na+].[O-]Cl [NaOCl, sodium hypochlorite]
Background inhibitory activity ([12]; 0.4 mM NaOCl): less than 2%

SMILES: COc1ccc2c(c1)c(CC(=O)O)c(C)n2C(=O)c1ccc(Cl)cc1 [indomethacin]
absorption / activation [14]: absorbed primarily from the upper GI tract
effect on polyps [15]: no influence on polyp regression

SMILES: CC1=C(CC(=O)O)c2cc(F)ccc2/C1=C\c1ccc([S+](C)[O-])cc1 (stereo not shown) [sulindac]
absorption / activation [14]: converted to its active metabolite, sulindac sulfide, by the colonic bacteria
time to regression of polyps ([15]; nine familial polyposis patients): less than 4 months
effect on polyps [15]: regression of polyps; also recorded: polyp growth resumed following sulindac withdrawal
effect on tumor incidence, dimethylhydrazine-induced [16]: reduce tumor incidence only when present during carcinogen administration
